Test results as given in patent US9618513B2, “Compositions and methods for detecting and treating colorectal cancer” (The Regents of the University of Michigan, priority 2014, dated 2017).

Test system: DLD-1 colon cancer cells
Assay: In vivo tumor formation of DLD-1 cells in NSG mice
Design: species or system NOD/Shi-scid/IL-2Rγnull (NSG) mice
Text: (A), IL-22 is expressed in colon cancer tissues. IL-22 mRNA was detected by real-time PCR in colon cancer tissues and peripheral blood. *P<0.05 compared to blood, 20 colon cancer patients. (B-D), Endogenous IL-22 promotes colon carcinogenesis. Single cells (10^7) isolated from colon cancer tissue were mixed with anti-IL-22 antibody or control mAb, and then subcutaneously injected to NSG mice. Tumor growth (B), incidence (C), and animal survival (D) are shown. (P<0.05 for all, n=5 per group). (E-G) Recombinant IL-22 promotes colon carcinogenesis. DLD-1 colon cancer cells (10^5) were pre-incubated with IL-22 (20 ng/ml) for 1 hour, and then subcutaneously injected to NSG mice. Tumor growth (E), incidence (F), and animal survival (G) are shown. (P<0.05 for all, n=5 per group). (H, I) IL-22 enhances colon cancer sphere formation. DLD-1 colon cancer cells were pre-incubated for 24 hours with IL-22. Sphere assay was performed with 2,000 cells. Representative image of spheres (H) and the mean numbers of spheres (I) are shown. *P<0.05, n=5. (J) IL-22 increases ALDH1 activity in colon cancer cells. Colon cancer cell lines (DLD-1 and HT29) and two primary colon cancer cells (1, 2) were cultured with IL-22 for 24 hours. ALDH activity was determined by FACS based on aldefluor fluorescence. Cells treated with DEAB inhibitor were negative controls. Results are expressed as fold changes of ALDH expression. (P<0.05 for all, n=3 repeats per group). (K-M) IL-22 stimulates core stem cell gene expression in colon cancer cells. DLD-1 colon cancer cells were cultured with IL-22 (20 ng/ml). The mRNA of stem cell core gene was detected by real-time PCR (K) and proteins were detected by western blotting (L, M). (*P<0.05, n=5).
IL-22 treated 10^6 DLD-1 cells were inoculated into NSG mice. Tumor incidence (A) and tumor growth (B) were recorded. n=5 per group, P<0.05.
To confirm the tumorigenic potential of endogenous IL-22, different concentrations of a colorectal adenocarcinoma cancer cell line, DLD-1 cells, were injected into the NSG mice to determine a nontumorigenic concentration. […] However, exogenous IL-22 administration enabled tumor formation with 10^5DLD-1 cells as shown by increased tumor volume (FIG. 1E) and incidence (FIG. 1F) and decreased mouse survival (FIG. 1G). When 10^6 DLD-1 cells were inoculated into mice, IL-22 accelerated tumor development (FIG. 13A) and growth as well (FIG. 13B). Thus, IL-22 may enhance tumorigenesis by altering cancer stem cell properties.
Colon cancer cells (10^2-5×10^6) in 100 μl of buffered saline were subcutaneously injected into dorsal tissues of female NOD/Shi-scid/IL-2Rγnull (NSG) mice (6-8 weeks old, Jackson Lab, Bar Harbor, Me.) (see, e.g., Curiel, T. J. et al. (2004) Nat Med 10, 942-949; Curiel, T. J. et al. (2003) Nat Med 9, 562-567; Kryczek, I. et al. (2012) Int J Cancer 130, 29-39). Tumor size was measured two times weekly using calipers fitted with a Vernier scale. Tumor volume was calculated based on three perpendicular measurements (see, e.g., Curiel, T. J. et al. (2004) Nat Med 10, 942-949; Curiel, T. J. et al. (2003) Nat Med 9, 562-567). Tumor incidence was monitored.

[1] = 10^5 DLD-1 cells pre-incubated with IL-22 (20 ng/ml) 1 hour

“IL-22: recombinant IL-22 (R&D systems), cytokine interleukin-22” was tested, and the mouse survival [1] was “decreased”, the tumor incidence [1] was “increased” and the tumor volume [1] was “increased”. The “tumor development (incidence)” value (10^6 IL-22 treated DLD-1 cells) was “accelerated” and the tumor growth (10^6 IL-22 treated DLD-1 cells) was “accelerated”.
